For one test, the target named is PDE4D2 (Homo sapiens, UniProt Q08499). The test is described as follows: PDE4D2 enzyme experiment (AMP-glo, cAMP substrate). The format is biochemical. The settings on record: read-out: PDE4D2 IC50 Binding. The source says: Inhibition rate % ^= (1 - (RLUpositive control - RLUcompound)/(RLUpositive control - RLUnegative control)) * 100.
The target of test [1] is T1, PDE4B2 (Homo sapiens, UniProt Q07343).
T1 construct: expressed in transfected cells; host or cells: Flp-In-293 (Flpin-293-PDE4B2 [sic])
The test is described as follows: PDE4B2 enzyme experiment (AMP-glo, cAMP substrate). The format is biochemical. The settings on record: for inhibition at 0.01 µM: read-out: PDE4B2 Enzyme Inhibition% @10 nM; for inhibition at 0.1 µM: read-out: PDE4B2 Enzyme Inhibition% @100 nM.

The target in test [2] is T1, PDE4B2. As to the kind of experiment: PDE4B2 cell experiment (cAMP, Eu-cAMP tracer / Ulight-anti-cAMP). The format is cell-based. The settings on record: Flpin-293-PDE4B2 cells; for IC50: Foskolin; for Cell Inhibition% @10 nM / inhibition at 0.01 µM: 10 nM; for Cell Inhibition% @100 nM / inhibition at 0.1 µM: 100 nM; for inhibition at 0.001 µM / Cell Inhibition% @1 nM: 1 nM.
Experimental: All compounds were dissolved in DMSO into 10 mM or 20 mM stock solutions. The compound to be tested was diluted with DMSO with a 3-fold gradient. […] 40 nL/well of the compound or a DMSO control was transferred to a 384-well plate by using Echo 550 instrument. […] The plate was incubated at 37°C for 30 minutes. Eu-cAMP tracer and Ulight-anti-cAMP were frozen and thawed and diluted in a lysis buffer. 10 of µl Eu-cAMP tracer was added to an experimental well, and 10 µl of Ulight-anti-cAMP was added to the experimental well. The reaction plate was centrifuged at 200 g at room temperature for 30 s and then left to stand at 25°C for 1 h, and data was then collected by Envision. Inhibition % = 100 - (Signal compound - SignalAve positive control)/(SignalAve negative control - SignalAve positive control) × 100. Graphpad 8.0 software was then used to obtain an IC50 value by calculation using Y = Bottom + (Top - Bottom)/(1 + 10^((LogIC50 - X) * HillSlope)).

T1 sequence (Q07343 1-564 isoform Q07343-2): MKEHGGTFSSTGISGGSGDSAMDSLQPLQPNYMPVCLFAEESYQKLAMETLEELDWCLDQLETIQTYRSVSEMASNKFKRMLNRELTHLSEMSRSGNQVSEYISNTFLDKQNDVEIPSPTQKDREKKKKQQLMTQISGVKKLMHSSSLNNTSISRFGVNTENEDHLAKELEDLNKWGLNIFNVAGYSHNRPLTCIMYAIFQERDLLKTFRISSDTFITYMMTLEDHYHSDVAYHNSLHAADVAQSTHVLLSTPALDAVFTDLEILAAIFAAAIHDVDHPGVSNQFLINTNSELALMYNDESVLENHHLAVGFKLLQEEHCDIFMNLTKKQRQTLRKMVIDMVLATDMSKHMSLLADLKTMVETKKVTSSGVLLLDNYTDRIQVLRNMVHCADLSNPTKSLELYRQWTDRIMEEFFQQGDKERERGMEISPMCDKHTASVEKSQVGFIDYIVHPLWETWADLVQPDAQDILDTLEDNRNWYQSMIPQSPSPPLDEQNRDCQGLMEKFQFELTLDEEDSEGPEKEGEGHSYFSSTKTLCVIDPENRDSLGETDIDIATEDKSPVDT
Sequence of PDE4D2 (Q08499 303-809 limits assumed): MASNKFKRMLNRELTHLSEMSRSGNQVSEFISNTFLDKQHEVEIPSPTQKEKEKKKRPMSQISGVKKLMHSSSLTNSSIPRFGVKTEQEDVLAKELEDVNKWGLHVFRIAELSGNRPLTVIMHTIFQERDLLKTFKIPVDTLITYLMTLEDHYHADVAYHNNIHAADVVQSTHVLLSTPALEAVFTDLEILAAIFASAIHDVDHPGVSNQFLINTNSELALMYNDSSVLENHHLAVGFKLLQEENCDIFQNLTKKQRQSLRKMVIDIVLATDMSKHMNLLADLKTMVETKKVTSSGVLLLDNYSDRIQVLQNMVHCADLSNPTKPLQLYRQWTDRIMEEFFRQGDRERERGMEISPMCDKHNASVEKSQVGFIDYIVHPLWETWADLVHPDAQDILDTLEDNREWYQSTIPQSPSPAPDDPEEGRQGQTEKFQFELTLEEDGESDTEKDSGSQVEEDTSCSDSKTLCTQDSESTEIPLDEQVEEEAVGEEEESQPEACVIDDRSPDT

In the case of `[O-][S@+]1CCc2nc(N3CCc4c(nn5cc(Cl)cnc45)C3)nc(NC3(CO)CCC3)c21` [Compound 1, (R)-2-(3-chloro-9,10-dihydropyrido[3',4':3,4]pyrazolo[1,5-a]pyrimidin-8(7H)-yl)-4-((1-(hydroxymethyl)cyclobutyl)amino)-6,7-dihydrothieno[3,2-d]pyrimidine 5-oxide], at PDE4D2, the IC50 was 7.72 nM.

As for `[O-][S@+]1CCc2nc(N3CCc4c(nn5cc(Cl)ccc45)C3)nc(NC3(CO)CCC3)c21` [Compound 9, (R)-2-(7-Chloro-3,4-dihydropyrazolo[1,5-a:3,4-c']dipyridin-2(1H)-yl)-4-((1-(hydroxymethyl)cyclobutyl)amino)-6,7-dihydrothieno[3,2-d]pyrimidine 5-oxide], the IC50 on PDE4D2 is 0.224 nM.

Take `[O-][S@+]1CCc2nc(N3CCc4cc(Cl)ccc4C3)nc(NC3(CO)CCC3)c21` [Compound 18, (R)-2-(6-chloro-3,4-dihydroisoquinolin-2(1H)-yl)-4-((1-(hydroxymethyl)cyclobutyl)amino)-6,7-dihydrothieno[3,2-d]pyrimidine 5-oxide]: the IC50 on PDE4D2 was found to be 3.21 nM.

`C[C@H]1c2ccc(Cl)cc2CCN1c1nc2c(c(NC3(CO)CCC3)n1)[S@+]([O-])CC2` [Compound 28, (R)-2-((S)-6-chloro-1-methyl-3,4-dihydroisoquinolin-2(1H)-yl)-4-((1-(hydroxymethyl)cyclobutyl)amino)-6,7-dihydrothieno[3,2-d]pyrimidine 5-oxide]: the IC50 on PDE4B2 [1] came out at 0.68 nM; against PDE4B2 [2] it was 36.3 nM.

For `[O-][S+]1CCc2nc(N3Cc4ccc(Cl)cc4C3)nc(NC3(CO)CCC3)c21` (stereo not drawn) [Compound 33], on PDE4B2 [1], the “PDE4B2 Enzyme Inhibition% @10 nM” value amounted to 72.33% and the “PDE4B2 Enzyme Inhibition% @100 nM” value came out at 98.64%. Further, on PDE4B2 [2], the “Cell Inhibition% @10 nM” value was 9% and the “Cell Inhibition% @100 nM” value is listed as 33.2%.

For the compound `[O-][S+]1CCc2nc(N3CCc4ccc(Cl)cc4CC3)nc(NC3(CO)CCC3)c21` (stereo not drawn) [Compound 34], half-maximal inhibition against PDE4B2 [1] (IC50) was put at 1.96 nM. Moreover, on PDE4B2 [2], the “Cell Inhibition% @10 nM” value worked out at 14% and the “Cell Inhibition% @100 nM” value is reported as 62%.

Turning to `[O-][S+]1CCc2nc(N3CCc4ccsc4C3)nc(NC3(CO)CCC3)c21` (stereo not drawn) [Compound 36], at PDE4B2 [1], the “PDE4B2 Enzyme Inhibition% @10 nM” value stood at 74.54% and the “PDE4B2 Enzyme Inhibition% @100 nM” value amounted to 99.04%. Moreover, on PDE4B2 [2], the “Cell Inhibition% @10 nM” value is listed as 18.10% and the “Cell Inhibition% @100 nM” value amounted to 66.60%.

For `[O-][S+]1CCc2nc(N3CCc4sccc4C3)nc(NC3(CO)CCC3)c21` (stereo not drawn) [Compound 37], the IC50 against PDE4B2 [1] is 2.99 nM; at PDE4B2 [2], 89.5 nM.

On to `Cn1cnc2c1CN(c1nc3c(c(NC4(CO)CCC4)n1)[S@+]([O-])CC3)CC2` [Compound 38, (R)-4-((1-(hydroxymethyl)cyclobutyl)amino)-2-(3-methyl-3,4,6,7-tetrahydro-5H-imidazo[4,5-c]pyridin-5-yl)-6,7-dihydrothieno[3,2-d]pyrimidine-5-oxide], for which, at PDE4B2 [1], the inhibition at 0.01 µM was 35.4% and the inhibition at 0.1 µM amounted to 84.7%. Also, at PDE4B2 [2], the inhibition at 0.01 µM stood at 20.3% and the inhibition at 0.1 µM was 38.2%.

For `Cn1c(=O)c2c(c3ccc(Cl)cc31)CCN(c1nc3c(c(NC4(CO)CCC4)n1)[S@+]([O-])CC3)C2` [Compound 45, (R)-8-chloro-3-(4-((1-(hydroxymethyl)cyclobutyl)amino)-5-oxido-6,7-dihydrothieno[3,2-d]pyrimidin-2-yl)-6-methyl-2,3,4,6-tetrahydrobenzo[c][2,7]naphthyridin-5(1H)-one], on PDE4B2 [1], the inhibition at 0.01 µM was 99.8% and the inhibition at 0.1 µM worked out at 100%. The compound further had an IC50 at PDE4B2 [2] of 3.99 nM.

Regarding `[O-][S+]1CCc2nc(N3CCc4ccc(Br)cc4CC3)nc(NC3(CO)CCC3)c21` (stereo not drawn) [Compound 46], on PDE4B2 [1], the “PDE4B2 Enzyme Inhibition% @10 nM” value is listed as 98.91% and the “PDE4B2 Enzyme Inhibition% @100 nM” value amounted to 100.22%. For the same compound, on PDE4B2 [2], the “Cell Inhibition% @10 nM” value amounted to 69.61% and the “Cell Inhibition% @100 nM” value was 99.05%.

For the compound `COc1ccc2c(c1)CCN(c1nc3c(c(NC4(CO)CCC4)n1)[S+]([O-])CC3)CC2` (stereo not drawn) [Compound 47], at PDE4B2 [1], the “PDE4B2 Enzyme Inhibition% @10 nM” value is recorded as 98.41% and the “PDE4B2 Enzyme Inhibition% @100 nM” value is 100.06%. The compound further registered an IC50 at PDE4B2 [2] of 6.28 nM.

On to `[O-][S@+]1CCc2nc(N3CCc4cc5c(cc4C3)OC(F)(F)O5)nc(NC3(CO)CCC3)c21` [Compound 48, (R)-2-(2,2-difluoro-7,8-dihydro-[1,3]dioxolo[4,5-g]isoquinolin-6(5H)-yl)-4-((1-(hydroxymethyl)cyclobutyl)amino)-6,7-dihydrothieno[3,2-d]pyrimidine 5-oxide], for which, on PDE4B2 [1], the inhibition at 0.01 µM was 87% and the inhibition at 0.1 µM came out at 101%. Further, on PDE4B2 [2], the inhibition at 0.01 µM is 25.7% and the inhibition at 0.1 µM turned out to be 76.2%.

On to `[O-][S@+]1CCc2nc(N3CCc4cc5ncoc5cc4C3)nc(NC3(CO)CCC3)c21` [Compound 49, (R)-2-(7,8-dihydrooxazolo[4,5-g]isoquinolin-6(5H)-yl)-4-((1-(hydroxymethyl)cyclobutyl)amino)-6,7-dihydrothieno[3,2-d]pyrimidine 5-oxide], for which the IC50 at PDE4D2 stood at 4.81 nM.

On to `COc1cc2c(cc1[N+](=O)[O-])CCN(c1nc3c(c(NC4(CO)CCC4)n1)[S@+]([O-])CC3)C2` [Compound 50, (R)-4-((1-(hydroxymethyl)cyclobutyl)amino)-2-(7-methoxy-6-nitro-3,4-dihydroisoquinolin-2(1H)-yl)-6,7-dihydrothieno[3,2-d]pyrimidine 5-oxide], for which, at PDE4D2, the IC50 stood at 0.695 nM.

In the case of `[O-][S@+]1CCc2nc(N3CCc4cc(Br)sc4C3)nc(NC3(CO)CCC3)c21` [Compound 53, (R)-2-(2-bromo-4,7-dihydrothieno[2,3-c]pyridin-6(5H)-yl)-4-((1-(hydroxymethyl)cyclobutyl)amino)-6,7-dihydrothieno[3,2-d]pyrimidine 5-oxide], the IC50 at PDE4D2 came to 1.22 nM.

As for `[O-][S+]1CCc2nc(N3CCc4sc(Br)cc4C3)nc(NC3(CO)CCC3)c21` (stereo not drawn) [Compound 55], at PDE4B2 [1], the “PDE4B2 Enzyme Inhibition% @10 nM” value turned out to be 93.26% and the “PDE4B2 Enzyme Inhibition% @100 nM” value was 99.90%. In addition, on PDE4B2 [2], the “Cell Inhibition% @10 nM” value is reported as 52.78% and the “Cell Inhibition% @100 nM” value was determined as 93.43%.

`[O-][S@+]1CCc2nc(N3CCc4scc(Br)c4C3)nc(NC3(CO)CCC3)c21` [Compound 57, (R)-2-(3-bromo-6,7-dihydrothieno[3,2-c]pyridin-5(4H)-yl)-4-((1-(hydroxymethyl)cyclobutyl)amino)-6,7-dihydrothieno[2,2-d]pyrimidine 5-oxide]: the inhibition at 0.001 µM at PDE4B2 [1] (read-out: PDE4B2 Enzyme Inhibition% @1 nM) was found to be 38.9%; against PDE4B2 [2], 11.8%. The inhibition at 0.01 µM on PDE4B2 [1] is 90.5%; against PDE4B2 [2], 14.9%. Further, the inhibition at 0.1 µM on PDE4B2 [1] is 100%; against PDE4B2 [2], 71.6%.

On to `Cn1nc2c(c1Cl)CN(c1nc3c(c(NC4(CO)CCC4)n1)[S+]([O-])CC3)CC2` (stereo not drawn) [Compound 58], for which, at PDE4B2 [1], the “PDE4B2 Enzyme Inhibition% @10 nM” value was determined as 68.74% and the “PDE4B2 Enzyme Inhibition% @100 nM” value came to 97.48%. Also, at PDE4B2 [2], the “Cell Inhibition% @10 nM” value was 15.88% and the “Cell Inhibition% @100 nM” value is recorded as 57.11%.

As to `N#Cc1ccc2c(c1)CN(c1nc3c(c(NC4(CO)CCC4)n1)[S@+]([O-])CC3)C2` [Compound 60, (R)-2-(4-((1-(hydroxymethyl)cyclobutyl)amino)-5-oxido-6,7-dihydrothieno[3,2-d]pyrimidin-2-yl)isoindoline-5-carbonitrile], on PDE4B2 [1], the inhibition at 0.01 µM is 65.8% and the inhibition at 0.1 µM worked out at 99.3%. On PDE4B2 [2], the inhibition at 0.01 µM worked out at 21.2% and the inhibition at 0.1 µM came to 65.9%.

Regarding `O=[N+]([O-])c1ccc2c(c1)CN(c1nc3c(c(NC4(CO)CCC4)n1)[S+]([O-])CC3)C2` (stereo not drawn) [Compound 61], on PDE4B2 [1], the “PDE4B2 Enzyme Inhibition% @10 nM” value was found to be 70.90% and the “PDE4B2 Enzyme Inhibition% @100 nM” value came to 98.20%. Moreover, on PDE4B2 [2], the “Cell Inhibition% @10 nM” value is given as 17.7% and the “Cell Inhibition% @100 nM” value is 55.2%.

For `[O-][S+]1CCc2nc(N3Cc4ccc(C(F)(F)F)cc4C3)nc(NC3(CO)CCC3)c21` (stereo not drawn) [Compound 62], on PDE4B2 [1], the “PDE4B2 Enzyme Inhibition% @10 nM” value was found to be 83.85% and the “PDE4B2 Enzyme Inhibition% @100 nM” value came out at 100.57%. Also, on PDE4B2 [2], the “Cell Inhibition% @10 nM” value is listed as 29.5% and the “Cell Inhibition% @100 nM” value worked out at 69.1%.

For `[O-][S+]1CCc2nc(N3CCc4nc(Br)sc4C3)nc(NC3(CO)CCC3)c21` (stereo not drawn) [Compound 63], it took 4.21 nM to reach half-maximal inhibition against PDE4B2 [1] (IC50). Moreover, on PDE4B2 [2], the “Cell Inhibition% @10 nM” value turned out to be 31.1% and the “Cell Inhibition% @100 nM” value is 76.6%.

The compound `NC(=O)c1ccc2c(c1)CCN(c1nc3c(c(NC4(CO)CCC4)n1)[S+]([O-])CC3)C2` (stereo not drawn) [Compound 75] registered an IC50 at PDE4B2 [1] of 0.81 nM. On PDE4B2 [2], the “Cell Inhibition% @1 nM” value turned out to be 4.93%, the “Cell Inhibition% @10 nM” value is 24.88% and the “Cell Inhibition% @100 nM” value is 51.36%.

As to `[O-][S+]1CCc2nc(N3CCc4cnc(Cl)cc4C3)nc(NC3(CO)CCC3)c21` (stereo not drawn) [Compound 79], on PDE4B2 [1], the IC50 came to 9.19 nM. On PDE4B2 [2], the “Cell Inhibition% @1 nM” value came to 1.99%, the “Cell Inhibition% @10 nM” value is on record as 11.19% and the “Cell Inhibition% @100 nM” value stood at 59.37%.

With `CN1CC=C(c2ccc3c(c2)CCN(c2nc4c(c(NC5(CO)CCC5)n2)[S@+]([O-])CC4)C3)C1` [Compound 169, (R)-4-((1-(hydroxymethyl)cyclobutyl)amino)-2-(6-(1-methyl-2,5-dihydro-1H-pyrrol-3-yl)-3,4-dihydroisoquinolin-2(1H)-yl)-6,7-dihydrothieno[3,2-d]pyrimidine 5-oxide], at PDE4B2 [1], the inhibition at 0.01 µM came out at 20.4% and the inhibition at 0.1 µM came to 78.8%. Moreover, on PDE4B2 [2], the inhibition at 0.001 µM came out at 4.67%, the inhibition at 0.01 µM stood at 48.6% and the inhibition at 0.1 µM turned out to be 96.7%.

What is called IC50 is the concentration that inhibits the measured activity by half. As usually defined, the inhibition is the drop in the measured response relative to a control, in per cent.

(Values after patent EP4678644A1, “SUBSTITUTED DIHYDROTHIENOPYRIMIDINE COMPOUND, PREPARATION METHOD THEREFOR, AND USE THEREOF” (Shanghai Yidi Biotechnology Co., Ltd., priority 2023, dated 2024).)
